Strand notation (5' to 3'): a small letter for the sugar, then the base; units joined by * are phosphorothioate-linked, units joined directly phosphodiester-linked; [ ] holds rarer units or linkages, { } end groups; capitals alone tell only the bases. k = constrained ethyl (cEt); [5mC] = 5-methylcytosine; d = 2'-deoxy (DNA)
The substances below were run on Yap1 mRNA (assay: Antisense inhibition of human Yap1 in A-431 cells by cEt gapmers, single dose (Example 4, RTS4814)). Conditions: Table 14; A-431 cells, 5,000 cells per well, free uptake, 2,000 nM, approximately 48 hours; RTS4814; normalized to RIBOGREEN; Yap1 mRNA relative to untreated control; * = targets amplicon region of primer probe set.
Format: cell-based
In short: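 A-431 cells took up 3-10-3 cEt gapmers (16-mer, full phosphorothioate, 5-methylcytosines) by free uptake at 2,000 nM for about 48 h. Yap1 mRNA was quantified by qRT-PCR, normalized to total RNA (RIBOGREEN), and reported as % of untreated control.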

Substance | YAP1 (% UTC)
1074240 (antisense k[5mC]*kT*kG*dG*d[5mC]*dA*dG*dA*dG*dG*dT*dA*d[5mC]*kA*kT*k[5mC]) [Compound 1074240] | 29
1075488 (antisense k[5mC]*kA*kG*dA*dA*dT*dA*dA*dG*dG*dG*dA*dG*kA*kT*k[5mC]) [Compound 1075488] | 56
1076288 (k[5mC]*kT*kT*dA*dT*dT*dT*dA*dG*d[5mC]*dA*dT*dA*kG*kT*kG; antisense) [Compound 1076288] | 3
1076320 (k[5mC]*kA*kT*dT*dA*dA*d[5mC]*d[5mC]*dT*d[5mC]*dA*d[5mC]*d[5mC]*k[5mC]*kA*kT; antisense) [Compound 1076320] | 52
1074208 (antisense kG*kT*kG*d[5mC]*dA*d[5mC]*dG*dA*dT*d[5mC]*dT*dG*dA*kT*kG*k[5mC]) [Compound 1074208] | 96
1074624 (antisense kG*kG*k[5mC]*dT*dT*dA*dT*dT*d[5mC]*dT*dA*dG*dA*kA*kA*k[5mC]) [Compound 1074624] | 65
1075296 (antisense kA*kT*kT*dA*dT*dA*dA*dG*d[5mC]*dT*dG*dT*dG*kT*kT*kG) [Compound 1075296] | 18
1074400 (antisense kG*kA*kT*dT*dT*dA*dG*dA*dA*dT*dT*d[5mC]*dA*kG*kT*k[5mC]) [Compound 1074400] | 42
1076256 (kT*kT*kA*dT*dT*dT*dA*dG*dG*d[5mC]*d[5mC]*d[5mC]*d[5mC]*kA*kT*kA; antisense) [Compound 1076256] | 4

Same assay, conditions: Table 15; A-431 cells, 5,000 cells per well, free uptake, 2,000 nM, approximately 48 hours; RTS4814; normalized to RIBOGREEN; Yap1 mRNA relative to untreated control; * = targets amplicon region of primer probe set

Substance | YAP1 (% UTC)
1075297 (kG*kT*kT*dA*dA*dT*dT*dA*dT*dA*dA*dG*d[5mC]*kT*kG*kT; antisense) [Compound 1075297] | 10
1075745 (k[5mC]*kT*kT*d[5mC]*dA*dA*dA*dA*dG*d[5mC]*dA*d[5mC]*dG*kG*kT*kG; antisense) [Compound 1075745] | 58
1074689 (antisense k[5mC]*kT*k[5mC]*d[5mC]*d[5mC]*d[5mC]*d[5mC]*dT*dA*dA*dG*d[5mC]*dT*kA*kA*kA) [Compound 1074689] | 70
1075233 (antisense kG*kT*kA*dA*dT*dT*dT*dA*dT*d[5mC]*dA*dG*d[5mC]*k[5mC]*kA*kT) [Compound 1075233] | 2
1075681 (kT*kA*kA*dT*dT*dA*dT*dT*dA*d[5mC]*d[5mC]*d[5mC]*d[5mC]*kT*kT*k[5mC]; antisense) [Compound 1075681] | 37
1076097 (k[5mC]*kA*kA*dT*dA*dA*dT*dA*dA*dA*d[5mC]*dG*dA*kT*kT*k[5mC]; antisense) [Compound 1076097] | 70
1074273 (antisense k[5mC]*kT*kT*dA*dT*dG*dG*dT*dT*dT*dA*dT*dA*kT*kA*kG) [Compound 1074273] | 34
1074753 (kT*kA*k[5mC]*dA*dT*dT*dA*dG*dG*dA*dA*d[5mC]*dA*kA*kG*kG; antisense) [Compound 1074753] | 4
1074305 (antisense k[5mC]*kA*k[5mC]*d[5mC]*dT*dG*d[5mC]*d[5mC]*dG*dA*dA*dG*d[5mC]*kA*kG*kT) [Compound 1074305] | 64
1074913 (antisense k[5mC]*kA*kT*d[5mC]*d[5mC]*d[5mC]*dG*dA*dG*dT*dG*dG*dG*k[5mC]*kT*kA) [Compound 1074913] | 99
1076257 (k[5mC]*kT*kA*dA*dG*dA*dA*dA*d[5mC]*dT*d[5mC]*dA*dT*kA*kG*kT; antisense) [Compound 1076257] | 54
1076193 (kT*kT*kA*dA*dT*dA*d[5mC]*dA*d[5mC]*dA*dG*dG*dT*kT*k[5mC]*k[5mC]; antisense) [Compound 1076193] | 29

Same assay, conditions: Table 16; A-431 cells, 5,000 cells per well, free uptake, 2,000 nM, approximately 48 hours; RTS4814; normalized to RIBOGREEN; Yap1 mRNA relative to untreated control cells

Substance | YAP1 (% UTC)
1076482 (antisense k[5mC]*kT*kT*dT*dA*dG*dA*d[5mC]*dT*dA*dA*dG*dT*kA*kA*kG) [Compound 1076482] | 107
1074626 (antisense k[5mC]*kT*kG*dT*dT*dA*dT*dG*dA*dA*d[5mC]*d[5mC]*d[5mC]*kT*kT*kG) [Compound 1074626] | 5
1076514 (antisense k[5mC]*k[5mC]*kT*dT*dA*dG*dG*dA*dG*dA*dT*dG*d[5mC]*kA*k[5mC]*k[5mC]) [Compound 1076514] | 18
1074690 (antisense k[5mC]*k[5mC]*kT*d[5mC]*d[5mC]*d[5mC]*d[5mC]*d[5mC]*dT*dA*dA*dG*d[5mC]*kT*kA*kA) [Compound 1074690] | 81
1076002 (kA*kT*kT*dT*dA*dA*dT*dG*dG*d[5mC]*dT*dT*dG*k[5mC]*kA*kT; antisense) [Compound 1076002] | 21
1074210 (antisense kT*k[5mC]*k[5mC]*dG*dG*dA*dG*d[5mC]*d[5mC]*dT*d[5mC]*dA*dT*kG*kG*kG) [Compound 1074210] | 113
1076226 (k[5mC]*kA*kT*dA*dT*dA*dA*dA*d[5mC]*d[5mC]*dT*dT*dG*k[5mC]*kT*kA; antisense) [Compound 1076226] | 36
1074594 (antisense kT*kA*kG*dG*dA*dG*d[5mC]*dA*dA*dG*dT*d[5mC]*dT*kT*kG*kT) [Compound 1074594] | 6
1074818 (kA*k[5mC]*kT*dG*dA*dA*dT*dA*dT*dT*dG*d[5mC]*d[5mC]*kA*k[5mC]*k[5mC]; antisense) [Compound 1074818] | 12
1075330 (kG*kA*kG*dG*dG*dA*dA*dA*dA*d[5mC]*dT*dT*dT*kG*k[5mC]*kA; antisense) [Compound 1075330] | 63

Same assay, conditions: Table 17; A-431 cells, 5,000 cells per well, free uptake, 2,000 nM, approximately 48 hours; RTS4814; normalized to RIBOGREEN; Yap1 mRNA relative to untreated control cells

Substance | YAP1 (% UTC)
1076035 (kG*kT*kA*dA*dT*dT*dA*dG*dA*dA*dA*d[5mC]*dT*kT*kG*kG; antisense) [Compound 1076035] | 9
1075587 (k[5mC]*kT*kT*dA*dT*dT*dA*dG*d[5mC]*dA*d[5mC]*d[5mC]*dT*kG*kG*kG; antisense) [Compound 1075587] | 50
1075203 (antisense kT*kA*kA*dT*dT*dA*dT*dA*dT*dA*dA*dG*dG*k[5mC]*kT*kG) [Compound 1075203] | 68
1075715 (kG*kA*kA*dT*dT*dA*d[5mC]*dA*dA*dT*d[5mC]*dA*dA*k[5mC]*k[5mC]*kT; antisense) [Compound 1075715] | 12
1076515 (antisense k[5mC]*kT*kG*d[5mC]*dA*dA*dG*dA*dA*dT*dA*d[5mC]*dT*kT*kT*kA) [Compound 1076515] | 30
1074499 (kT*kA*k[5mC]*dA*dA*dT*dA*dA*d[5mC]*d[5mC]*dA*dT*d[5mC]*k[5mC]*k[5mC]*kA; antisense) [Compound 1074499] | 10
1075491 (antisense kG*kA*k[5mC]*dG*dG*dA*dA*dG*dT*dT*dG*d[5mC]*dA*kA*kG*kG) [Compound 1075491] | 93
1074307 (antisense kG*kT*kG*dG*d[5mC]*d[5mC]*dT*d[5mC]*dA*d[5mC]*d[5mC]*dT*dG*k[5mC]*k[5mC]*kG) [Compound 1074307] | 105
1075427 (antisense kT*kA*kT*dA*dA*dG*dG*d[5mC]*dA*dT*d[5mC]*dT*dT*kG*kG*kA) [Compound 1075427] | 60

Same assay, conditions: Yap1 mRNA remaining as percent of untreated control; 3-10-3 cEt gapmers; A-431 cells; Table 36

Substance | YAP1 (% UTC)
1075254 (kT*k[5mC]*k[5mC]*d[5mC]*dA*dA*dA*dA*dG*dT*d[5mC]*dA*dT*k[5mC]*kG*k[5mC]; antisense) [compound 1075254] | 28
1074518 (kA*kA*kA*dT*dG*d[5mC]*dA*dT*dA*d[5mC]*dA*dA*dA*kG*k[5mC]*kG; antisense) [compound 1074518] | 13
1076182 (k[5mC]*kT*kA*dT*dA*dA*dT*dT*dA*dG*d[5mC]*d[5mC]*dA*kA*k[5mC]*k[5mC]; antisense) [compound 1076182] | 15
1075158 (k[5mC]*kG*kG*d[5mC]*dA*dA*dA*dA*dA*d[5mC]*dA*dA*dA*kA*kT*k[5mC]; antisense) [compound 1075158] | 76
1074710 (antisense k[5mC]*kT*k[5mC]*dT*dA*dG*dA*dA*d[5mC]*dA*dG*d[5mC]*dT*kG*k[5mC]*k[5mC]) [compound 1074710] | 42

Same assay, conditions: Yap1 mRNA remaining as percent of untreated control; 3-10-3 cEt gapmers; A-431 cells; Table 37

Substance | YAP1 (% UTC)
1076567 (kG*kA*kT*dT*dA*d[5mC]*dA*dG*dT*dG*dA*d[5mC]*dA*kT*kT*k[5mC]; antisense) [compound 1076567] | 10
1076535 (kA*kT*kT*dT*dT*dT*dA*dG*d[5mC]*dT*d[5mC]*dG*d[5mC]*kA*kA*kT; antisense) [compound 1076535] | 28
1075031 (antisense kA*kT*kT*dT*dA*dA*dT*dA*dT*dT*d[5mC]*dG*dA*k[5mC]*kA*k[5mC]) [compound 1075031] | 52
1075159 (k[5mC]*kA*kA*dA*dA*dA*dA*dT*d[5mC]*dA*d[5mC]*dG*dG*k[5mC]*kA*kA; antisense) [compound 1075159] | 63
1074711 (antisense kA*k[5mC]*kT*d[5mC]*dT*dA*dG*dA*dA*d[5mC]*dA*dG*d[5mC]*kT*kG*k[5mC]) [compound 1074711] | 28

— US11214803B2, “Modulators of YAP1 expression” (Ionis Pharmaceuticals, Inc., priority 2019, dated 2022)
